Literature values, collected in patent publication US11718578B2, “Ketamine flow synthesis” (Université de Liège, priority 2017, dated 2023).
pIC50: −log10 of the molar value.

Biological target: glutamatergic N-methyl-D-aspartate (NMDA) receptor
Conditions: non-competitive NMDA receptor antagonist; according to Tyler et al.

CN[C@]1(c2ccccc2Cl)CCCCC1=O [1a, (S)-2-(2-chlorophenyl)-2-(methylamino)-cyclohexanone]
pIC50: 6.33
